According to ChEMBL document CHEMBL6127130, “Pullenvalenes E-H: Triterpenyl-Aminoglycosides from an Australian Soil-Derived Fungus, Clonostachys sp” (J Nat Prod, 2024):

Columns and labels:
[1] = Inhibition of RANKL-induced osteoclastogenesis in mouse RAW264 cells assessed as reduction in multinucleated TRAP positive osteoclasts incubated for 4 days by TRAP staining based light microscopic analysis; format: functional, cell-based; details: raw264.7
SW-620 = assay: Cytotoxicity against human SW620 cells assessed as inhibition of cell growth incubated for 24 hrs by MTT assay; format: functional, cell-based; details: SW-620, 24 h
Escherichia coli = assay: Antibacterial activity against Escherichia coli ATCC 11775 assessed as inhibition of bacterial growth incubated for 24 hrs by serial dilution based spectrophotometric analysis; format: functional, organism-based; details: ATCC 11775, 24 h
Candida albicans = assay: Antifungal activity against Candida albicans ATCC 10231 assessed as inhibition of fungal growth incubated for 48 hrs by serial dilution based spectrophotometric analysis; format: functional, organism-based; details: ATCC 10231, 48 h
Staphylococcus aureus = assay: Antibacterial activity against Staphylococcus aureus ATCC 25923 assessed as inhibition of bacterial growth incubated for 24 hrs by serial dilution based spectrophotometric analysis; format: functional, organism-based; details: ATCC 25923, 24 h
NCI-H460 = assay: Cytotoxicity against human NCI-H460 cells assessed as inhibition of cell growth incubated for 24 hrs by MTT assay; format: functional, cell-based; details: NCI-H460, 24 h

SMILES	IC50 [1]	IC50 (SW-620)	IC50 (Escherichia coli)	IC50 (Candida albicans)	IC50 (Staphylococcus aureus)	IC50 (NCI-H460)
CC(C)[C@@]1(O)CC[C@@]2(C)C[C@](O)([C@@H]3CC[C@@H]4[C@]3(C)CC[C@H]3OC(C)(C)[C@H](O)C(=O)[C@@H](O)[C@]43C)CC[C@H]21	12.8 µM					
COC[C@H]1O[C@H](O[C@@]2(C)CC[C@@H](C(C)(C)O)O[C@@H]2CC[C@H](C)[C@@]2(C)CCC3=C2CC[C@@H]2OC(C)(C)[C@H](O[C@H]4O[C@H](COC)[C@@H](O)[C@H](O)[C@H]4NC(C)=O)[C@@H](O)C[C@@]32C)[C@H](NC(C)=O)[C@@H](O)[C@@H]1O		> 30 µM	> 30 µM	> 30 µM	> 30 µM	> 30 µM
COC[C@H]1O[C@H](O[C@@]2(C)CC[C@@H](C(C)(C)O)O[C@@H]2CC[C@H](C)[C@@]2(C)CC=C3[C@@H]2CC[C@@H]2OC(C)(C)[C@H](O[C@H]4O[C@H](COC)[C@@H](O)[C@H](O)[C@H]4NC(C)=O)[C@@H](O)C[C@@]32C)[C@H](NC(C)=O)[C@@H](O)[C@@H]1O		> 30 µM	> 30 µM	> 30 µM	> 30 µM	> 30 µM
CC(C)[C@@]1(O)CC[C@@]2(C)C[C@](O)([C@@H]3CC[C@@H]4[C@]3(C)CC[C@H]3OC(C)(C)[C@H](O)C(=O)[C@H](O)[C@]43C)CC[C@H]21	32.8 µM					
COC[C@H]1O[C@H](O[C@@H]2CC[C@@]3(C)C4=CC[C@](C)([C@@H](C)CC[C@H]5O[C@H](C(C)(C)O)CC[C@]5(C)O)[C@H]4CC[C@@H]3OC2(C)C)[C@H](NC(C)=O)[C@@H](O)[C@@H]1O		> 30 µM	> 30 µM	> 30 µM	> 30 µM	> 30 µM
COC[C@H]1O[C@H](O[C@@H]2CC[C@@]3(C)C4=CC[C@](C)([C@@H](C)CC[C@H]5O[C@H](C(C)(C)O)CC[C@]5(C)O[C@H]5O[C@H](COC)[C@@H](O)[C@H](O)[C@H]5NC(C)=O)[C@H]4CC[C@@H]3OC2(C)C)[C@H](NC(C)=O)[C@@H](O)[C@@H]1O		> 30 µM	> 30 µM	> 30 µM	> 30 µM	> 30 µM
COC[C@H]1O[C@H](O[C@@H]2[C@@H](O)C[C@@]3(C)C4=CC[C@](C)([C@@H](C)CC[C@H]5O[C@H](C(C)(C)O)CC[C@]5(C)O)[C@H]4CC[C@@H]3OC2(C)C)[C@H](NC(C)=O)[C@@H](O)[C@@H]1O		> 30 µM	> 30 µM	> 30 µM	> 30 µM	> 30 µM
CC(=O)N[C@H]1[C@@H](O[C@@H]2CC[C@@]3(C)C4=CC[C@](C)([C@@H](C)CC[C@H]5O[C@H](C(C)(C)O)CC[C@]5(C)O)[C@H]4CC[C@@H]3OC2(C)C)O[C@H](CO)[C@@H](O)[C@@H]1O		> 30 µM	> 30 µM	> 30 µM	> 30 µM	> 30 µM
COC[C@H]1O[C@H](O[C@@H]2CC[C@@]3(C)C4=C(CC[C@@H]3OC2(C)C)[C@@](C)([C@@H](C)CC[C@H]2O[C@H](C(C)(C)O)CC[C@]2(C)O[C@H]2O[C@H](COC)[C@@H](O)[C@H](O)[C@H]2NC(C)=O)CC4)[C@H](NC(C)=O)[C@@H](O)[C@@H]1O		> 30 µM	> 30 µM	> 30 µM	> 30 µM	> 30 µM
COC[C@H]1O[C@H](O[C@@]2(C)CC[C@@H](C(C)(C)O)O[C@@H]2CC[C@H](C)[C@@]2(C)CC=C3[C@@H]2CC[C@@H]2OC(C)(C)[C@H](O[C@H]4O[C@H](CO)[C@@H](O)[C@H](O)[C@H]4NC(C)=O)CC[C@@]32C)[C@H](NC(C)=O)[C@@H](O)[C@@H]1O		> 30 µM	> 30 µM	> 30 µM	> 30 µM	> 30 µM
